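Growth conditions: 96-well plates. Treatment: test compound, 48 hours, 5 concentrations. Analysis: linear interpolation between bracketing concentrations; unreached endpoints set to highest concentration. At the TGI there is no net growth.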

One assay has as its system NCI/ADR-RES ovarian. Put plainly: inhibition of tumour cell growth, NCI panel, 48 h.
On to `NN(CC(=O)O)CC(=O)O`, for which the TGI is > 100 µM.

As to `C=CCN1C(=O)C=C(c2ccccc2)n2ncc3cccc1c32`, the TGI was > 100 µM.

A further assay concerns OVCAR-8 ovarian. Put plainly: inhibition of tumour cell growth, NCI panel, 48 h.
As to `O=C(CN1CCCCC1)Nc1ccc2sc3ccccc3c(=O)c2n1`, the TGI is 47.4 µM.

On to `CCOC(=O)/C(C#N)=C\c1ccc(N(CCC(=O)O)CCC(=O)O)c(I)c1`, for which the TGI is > 10 µM.

Regarding `CCOC(=O)P(=O)(O)c1ccc(N(C)Cc2ccccc2)cc1`, the TGI is > 100 µM.

Regarding `C=C(C)C1=CCC[C@]2(C1)N=C(OC)[C@@H](C(C)C)N=C2OC`, the TGI was > 100 µM.

Take `CC(=O)C(=C(c1ccccc1)c1ccccc1)c1ccccc1`: the TGI is > 100 µM.

On to `O=C1NC2ON=C(c3ccccc3)C2C2ON=C(c3ccccc3)N12` (stereo unspecified), for which the TGI was > 100 µM.

`C=CCNC(=O)NC(=O)CSC1=NNC2(C(=O)N1)c1ccccc1-c1ccccc12`: the TGI is > 10 µM.

Take `O=C1/C(=C/c2cccc(F)c2)CCCc2ccccc21`: the TGI amounted to 29.3 µM.

In turn, `CC1=NN(C(=O)c2ccccc2O)C(=O)/C1=C/c1ccco1` gave a TGI of 97.9 µM.

`COc1ccc2[nH]cc(CCNC(=O)[C@H](Cc3ccccc3)NC(=O)[C@@H](NCC(F)(F)F)C(C)C)c2c1` had a TGI of 54.4 µM.

In the case of `CCc1n[nH]c(=O)n1/N=C/c1c(O)ccc2ccccc12`, the TGI was > 100 µM.

On to `C(=C\c1cccs1)/c1cccc(/C=C/c2cccs2)n1`, for which the TGI is > 100 µM.

Compound `Cn1c(=O)c(Br)c(C=O)n(CCO[N+](=O)[O-])c1=O` showed a TGI of 7.79 µM.

`NN(CC(=O)O)CC(=O)O`: the TGI was > 100 µM.

As to `C=CCN1C(=O)C=C(c2ccccc2)n2ncc3cccc1c32`, the TGI was > 100 µM.

Another assay relates to RXF 393 renal. Put plainly: inhibition of tumour cell growth, NCI panel, 48 h.
`CCOC(=O)/C(C#N)=C\c1ccc(N(CCC(=O)O)CCC(=O)O)c(I)c1`: the TGI was > 10 µM.

As to `CC(=O)C(=C(c1ccccc1)c1ccccc1)c1ccccc1`, the TGI was > 100 µM.

As to `O=C1NC2ON=C(c3ccccc3)C2C2ON=C(c3ccccc3)N12` (stereo unspecified), the TGI is > 100 µM.

For `C=CCNC(=O)NC(=O)CSC1=NNC2(C(=O)N1)c1ccccc1-c1ccccc12`, the TGI was > 10 µM.

`COc1ccc2[nH]cc(CCNC(=O)[C@H](Cc3ccccc3)NC(=O)[C@@H](NCC(F)(F)F)C(C)C)c2c1` displayed a TGI of 36.1 µM.

With `CCc1n[nH]c(=O)n1/N=C/c1c(O)ccc2ccccc12`, the TGI was > 100 µM.

In the case of `C(=C\c1cccs1)/c1cccc(/C=C/c2cccs2)n1`, the TGI was > 100 µM.

Another assay deals with SK-MEL-28 melanoma. Kind of assay: inhibition of tumour cell growth, NCI panel, 48 h.
Turning to `O=C(CN1CCCCC1)Nc1ccc2sc3ccccc3c(=O)c2n1`, the TGI is 35.2 µM.

Take `CCOC(=O)/C(C#N)=C\c1ccc(N(CCC(=O)O)CCC(=O)O)c(I)c1`: the TGI is > 10 µM.

On to `CCOC(=O)P(=O)(O)c1ccc(N(C)Cc2ccccc2)cc1`, for which the TGI is > 100 µM.

For the compound `C=C(C)C1=CCC[C@]2(C1)N=C(OC)[C@@H](C(C)C)N=C2OC`, the TGI was > 100 µM.

On to `CC(=O)C(=C(c1ccccc1)c1ccccc1)c1ccccc1`, for which the TGI was > 100 µM.

Compound `O=[N+]([O-])/C(C(Cl)=C(Cl)Cl)=C(\N1CCOCC1)n1nnc2ccccc21` had a TGI of 42.6 µM.

Regarding `C=CCNC(=O)NC(=O)CSC1=NNC2(C(=O)N1)c1ccccc1-c1ccccc12`, the TGI was > 10 µM.

`O=C1/C(=C/c2cccc(F)c2)CCCc2ccccc21`: the TGI is 30.2 µM.

For `CC1=NN(C(=O)c2ccccc2O)C(=O)/C1=C/c1ccco1`, the TGI was > 100 µM.

The compound `COc1ccc2[nH]cc(CCNC(=O)[C@H](Cc3ccccc3)NC(=O)[C@@H](NCC(F)(F)F)C(C)C)c2c1` showed a TGI of 31.8 µM.

In the case of `CCc1n[nH]c(=O)n1/N=C/c1c(O)ccc2ccccc12`, the TGI is > 100 µM.

In the case of `C(=C\c1cccs1)/c1cccc(/C=C/c2cccs2)n1`, the TGI is > 100 µM.

Turning to `Cn1c(=O)c(Br)c(C=O)n(CCO[N+](=O)[O-])c1=O`, the TGI stood at 4.73 µM.

For the compound `NN(CC(=O)O)CC(=O)O`, the TGI was > 100 µM.

Take `C=CCN1C(=O)C=C(c2ccccc2)n2ncc3cccc1c32`: the TGI is > 100 µM.

The next assay relates to SNB-19 CNS. Kind of assay: inhibition of tumour cell growth, NCI panel, 48 h.
As to `O=C(CN1CCCCC1)Nc1ccc2sc3ccccc3c(=O)c2n1`, the TGI was determined as 59.8 µM.

On to `CCOC(=O)/C(C#N)=C\c1ccc(N(CCC(=O)O)CCC(=O)O)c(I)c1`, for which the TGI is > 10 µM.

Consider `CCOC(=O)P(=O)(O)c1ccc(N(C)Cc2ccccc2)cc1`, for which the TGI was > 100 µM.

In the case of `C=C(C)C1=CCC[C@]2(C1)N=C(OC)[C@@H](C(C)C)N=C2OC`, the TGI was > 100 µM.

As for `CC(=O)C(=C(c1ccccc1)c1ccccc1)c1ccccc1`, the TGI is > 100 µM.

`O=C1NC2ON=C(c3ccccc3)C2C2ON=C(c3ccccc3)N12` (stereo unspecified): the TGI is > 100 µM.

Take `O=[N+]([O-])/C(C(Cl)=C(Cl)Cl)=C(\N1CCOCC1)n1nnc2ccccc21`: the TGI amounted to 33.7 µM.

In the case of `C=CCNC(=O)NC(=O)CSC1=NNC2(C(=O)N1)c1ccccc1-c1ccccc12`, the TGI was > 10 µM.

Take `O=C1/C(=C/c2cccc(F)c2)CCCc2ccccc21`: the TGI was found to be 29.4 µM.

For the compound `CC1=NN(C(=O)c2ccccc2O)C(=O)/C1=C/c1ccco1`, the TGI is > 91.1 µM.

For `COc1ccc2[nH]cc(CCNC(=O)[C@H](Cc3ccccc3)NC(=O)[C@@H](NCC(F)(F)F)C(C)C)c2c1`, the TGI is 84.8 µM.

Turning to `CCc1n[nH]c(=O)n1/N=C/c1c(O)ccc2ccccc12`, the TGI was > 100 µM.

Turning to `C(=C\c1cccs1)/c1cccc(/C=C/c2cccs2)n1`, the TGI was > 100 µM.

Turning to `Cn1c(=O)c(Br)c(C=O)n(CCO[N+](=O)[O-])c1=O`, the TGI was 68.4 µM.

For `NN(CC(=O)O)CC(=O)O`, the TGI is > 100 µM.

As for `C=CCN1C(=O)C=C(c2ccccc2)n2ncc3cccc1c32`, the TGI was > 100 µM.

For the next assay, the system named is UACC-62 melanoma. Kind of assay: inhibition of tumour cell growth, NCI panel, 48 h.
The compound `O=C(CN1CCCCC1)Nc1ccc2sc3ccccc3c(=O)c2n1` gave a TGI of 30.1 µM.

On to `CCOC(=O)/C(C#N)=C\c1ccc(N(CCC(=O)O)CCC(=O)O)c(I)c1`, for which the TGI was > 10 µM.

Take `CCOC(=O)P(=O)(O)c1ccc(N(C)Cc2ccccc2)cc1`: the TGI is > 100 µM.

Consider `C=C(C)C1=CCC[C@]2(C1)N=C(OC)[C@@H](C(C)C)N=C2OC`, for which the TGI is > 100 µM.

As for `CC(=O)C(=C(c1ccccc1)c1ccccc1)c1ccccc1`, the TGI is > 100 µM.

Take `O=C1NC2ON=C(c3ccccc3)C2C2ON=C(c3ccccc3)N12` (stereo unspecified): the TGI is > 100 µM.

The compound `O=[N+]([O-])/C(C(Cl)=C(Cl)Cl)=C(\N1CCOCC1)n1nnc2ccccc21` had a TGI of 46.7 µM.

Regarding `C=CCNC(=O)NC(=O)CSC1=NNC2(C(=O)N1)c1ccccc1-c1ccccc12`, the TGI is > 10 µM.

For the compound `O=C1/C(=C/c2cccc(F)c2)CCCc2ccccc21`, the TGI stood at 28.6 µM.

The compound `CC1=NN(C(=O)c2ccccc2O)C(=O)/C1=C/c1ccco1` came in with a TGI of 6.27 µM.

`COc1ccc2[nH]cc(CCNC(=O)[C@H](Cc3ccccc3)NC(=O)[C@@H](NCC(F)(F)F)C(C)C)c2c1` had a TGI of 36.2 µM.

As to `CCc1n[nH]c(=O)n1/N=C/c1c(O)ccc2ccccc12`, the TGI is > 100 µM.

Consider `C(=C\c1cccs1)/c1cccc(/C=C/c2cccs2)n1`, for which the TGI is > 100 µM.

`Cn1c(=O)c(Br)c(C=O)n(CCO[N+](=O)[O-])c1=O` displayed a TGI of 4.9 µM.

With `NN(CC(=O)O)CC(=O)O`, the TGI is > 100 µM.

Turning to `C=CCN1C(=O)C=C(c2ccccc2)n2ncc3cccc1c32`, the TGI is > 100 µM.

Source of the values: PubChem BioAssay (NCI).
